Measurements published in patent publication US4772606A, “Purine derivatives” (Warner-Lambert Company, priority 1985, dated 1988).
Structures can show the parent of a compound that is named as a salt. Where two headings read alike, the source gives them in different places.

How the values were obtained:
[1] = molecular target: T1, purine nucleoside phosphorylase (PNP-4) (Homo sapiens, UniProt P00491); assay: purine nucleoside phosphorylase (PNP-4) enzyme assay, radiochemical, formation of [14C]-hypoxanthine from [14C]inosine; format: biochemical; details: erythrocyte enzyme; [14C]inosine substrate
T1 construct: using hyman erythrocyte as the enzyme source; from tissue; host or cells: human erythrocytes
T1 sequence (P00491 1-289): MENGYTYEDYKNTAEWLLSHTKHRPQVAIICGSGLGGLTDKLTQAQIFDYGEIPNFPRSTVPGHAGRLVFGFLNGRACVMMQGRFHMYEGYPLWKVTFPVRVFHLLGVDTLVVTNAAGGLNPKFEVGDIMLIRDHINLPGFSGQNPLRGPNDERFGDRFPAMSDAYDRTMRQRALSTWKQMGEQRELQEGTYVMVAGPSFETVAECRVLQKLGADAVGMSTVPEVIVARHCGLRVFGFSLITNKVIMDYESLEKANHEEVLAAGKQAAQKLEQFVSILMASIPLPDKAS

T-Cell = assay: HTBA-1 T-cell cytotoxicity in the presence of 2'-deoxyguanosine; format: cell-based; details: read-out: HTBA-1 T-Cell +dGuo (10 μM) IC50

Row | Compound | IC50 [1] [µM] | IC50 (T-Cell) [µM] | IC50 (T-Cell; +dGuo (10 μM)) [µM]
1 | Nc1nc2c(nc(N)n2Cc2csc3ccccc23)c(=O)[nH]1 [Example 9e, 8-Amino-9-[(benzo[b]thien-3-yl)methyl]guanine] | 140 | – | –
2 | Nc1nc2c(nc(N)n2Cc2ccco2)c(=O)[nH]1 [Example 9b, 8-Amino-9-(2-furanylmethyl)guanine monohydrochloride] | 0.25 | 2.57 | –
3 | Cc1ccsc1Cn1c(N)nc2c(=O)[nH]c(N)nc21 [Example 9d, 8-Amino-9-[(3-methyl-2-thienyl)methyl]guanine] | 4.05 | – | 8.6
4 | CCc1ccc(Cn2cnc3c(=O)[nH]c(N)nc32)s1 [Example 3, 9-[(5-Ethyl-2-thienyl)methyl]guanine] | 0.93 | – | 4.15
5 | Nc1nc2c(ncn2Cc2cccnc2)c(=O)[nH]1 [Example 1, 9-[(3-Pyridinyl)methyl]guanine] | 21.9 | – | 54.1
6 | Nc1nc2c(nc(N)n2Cc2cccs2)c(=O)[nH]1 [2 or 9a] | 0.17 | 0.83 | –
7 | Nc1nc2c(nc(N)n2Cc2ccsc2)c(=O)[nH]1 [Example 9c, 8-Amino-9-[(3-thienyl)methyl]guanine, monohydrochloride, monohydrate] | 0.085 | – | 0.49

More lines, main results first:

Row | IC50 [1] [µM] | Compound | IC50 (T-Cell) [µM] | IC50 (T-Cell; +dGuo (10 μM)) [µM]
8 | 0.63 | Cc1cc(Cn2c(N)nc3c(=O)[nH]c(N)nc32)cs1 [Example 16Ak] | – | 2.8
9 | 1.72 | Cc1sccc1Cn1c(N)nc2c(=O)[nH]c(N)nc21 [Example 16Ad] | – | 18.2
10 | 8.45 | Nc1nc2c(nc(N)n2Cc2cc3ccccc3s2)c(=O)[nH]1 [Example 16Ag] | – | > 12.5
11 | 6.25 | Nc1nc2c(nc(N)n2CCc2cccs2)c(=O)[nH]1 [Example 16Ac] | – | 17.6
12 | 4.6 | Nc1nc2c(nc(N)n2Cc2ccccn2)c(=O)[nH]1 [Example 16Af] | – | –
